Measured values as given in paper PMC3914206.

Columns and labels:
Experiment in all cases: KiNativ chemical proteomics profiling in HeLa and PC3 cell lysates
Assay type in all cases: binding
[1] = target: T1, selected panels of kinases in HeLa and PC3 cell lysates (Homo sapiens, UniProt Q04912); details: 10 uM; RON; peptide IQCAIkSLSR; proteome PC3; labeling site Lys1
T1 construct: endogenous in cells; host or cells: HeLa and PC3 cell lysates

[2] = target: T2, selected panels of kinases in HeLa and PC3 cell lysates (Homo sapiens, UniProt O14757); details: 10 uM; proteome HEL; peptide DIkPENLLLDER; labeling site Lys2
T2 construct: endogenous in cells; host or cells: HeLa and PC3 cell lysates

[3] = target: T3, selected panels of kinases in HeLa and PC3 cell lysates (Homo sapiens, UniProt Q13464); details: 10 uM; ROCK1; peptide kLQLELNQER; proteome PC3; labeling site Other
T3 construct: endogenous in cells; host or cells: HeLa and PC3 cell lysates

[4] = target: T4, selected panels of kinases in HeLa and PC3 cell lysates (Homo sapiens, UniProt Q9Y2H1); details: 10 uM; proteome PC3; peptide DTGHIYAMkILR; labeling site Lys1
T4 construct: endogenous in cells; host or cells: HeLa and PC3 cell lysates
T4 sequence (Q9Y2H1 whole entry): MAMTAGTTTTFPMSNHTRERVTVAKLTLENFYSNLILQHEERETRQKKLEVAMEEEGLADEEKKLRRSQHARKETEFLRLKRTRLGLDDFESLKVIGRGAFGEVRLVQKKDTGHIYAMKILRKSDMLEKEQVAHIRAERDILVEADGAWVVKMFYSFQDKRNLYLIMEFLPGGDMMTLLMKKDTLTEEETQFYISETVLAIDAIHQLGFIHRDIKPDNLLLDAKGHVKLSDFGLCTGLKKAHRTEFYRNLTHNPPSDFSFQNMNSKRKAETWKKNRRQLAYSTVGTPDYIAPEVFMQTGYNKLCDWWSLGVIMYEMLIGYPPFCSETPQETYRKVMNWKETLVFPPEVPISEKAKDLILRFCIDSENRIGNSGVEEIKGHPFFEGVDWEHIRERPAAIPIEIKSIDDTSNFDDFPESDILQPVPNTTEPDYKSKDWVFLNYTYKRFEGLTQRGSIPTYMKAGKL

[5] = target: T5, selected panels of kinases in HeLa and PC3 cell lysates (Homo sapiens, UniProt Q9UKI8); details: 10 uM, TLK1
T5 construct: endogenous in cells; host or cells: HeLa and PC3 cell lysates
T5 sequence (Q9UKI8 1-766): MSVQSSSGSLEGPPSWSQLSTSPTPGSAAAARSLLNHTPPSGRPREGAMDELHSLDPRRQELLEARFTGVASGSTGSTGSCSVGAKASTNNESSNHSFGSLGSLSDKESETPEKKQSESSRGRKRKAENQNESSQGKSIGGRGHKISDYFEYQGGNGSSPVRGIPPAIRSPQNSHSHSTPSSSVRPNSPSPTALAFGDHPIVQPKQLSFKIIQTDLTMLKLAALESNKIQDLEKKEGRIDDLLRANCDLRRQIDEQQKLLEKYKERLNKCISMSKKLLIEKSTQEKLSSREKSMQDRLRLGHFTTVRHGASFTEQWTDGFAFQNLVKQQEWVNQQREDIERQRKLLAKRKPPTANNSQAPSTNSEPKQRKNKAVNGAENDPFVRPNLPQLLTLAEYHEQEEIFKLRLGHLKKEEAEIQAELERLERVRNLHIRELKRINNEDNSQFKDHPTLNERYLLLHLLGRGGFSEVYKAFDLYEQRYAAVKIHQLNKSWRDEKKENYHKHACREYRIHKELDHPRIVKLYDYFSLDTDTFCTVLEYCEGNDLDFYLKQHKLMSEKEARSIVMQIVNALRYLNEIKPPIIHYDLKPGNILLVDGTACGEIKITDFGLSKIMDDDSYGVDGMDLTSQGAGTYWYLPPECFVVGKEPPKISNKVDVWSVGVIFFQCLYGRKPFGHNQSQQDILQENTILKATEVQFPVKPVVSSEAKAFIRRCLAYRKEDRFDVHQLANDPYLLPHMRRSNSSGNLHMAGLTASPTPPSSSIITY

[6] = target: T6, selected panels of kinases in HeLa and PC3 cell lysates (Homo sapiens, UniProt Q9Y616); details: 10 uM; proteome HEL; peptide […]k[…]; labeling site Protein Kinase Domain
T6 construct: endogenous in cells; host or cells: HeLa and PC3 cell lysates

[7] = target: T7, selected panels of kinases in HeLa and PC3 cell lysates (Homo sapiens, UniProt Q9UBF8); details: 10 uM, PI4KB, peptide […]kDK, labeling site ATP
T7 construct: endogenous in cells; host or cells: HeLa and PC3 cell lysates
T7 sequence (Q9UBF8 whole entry): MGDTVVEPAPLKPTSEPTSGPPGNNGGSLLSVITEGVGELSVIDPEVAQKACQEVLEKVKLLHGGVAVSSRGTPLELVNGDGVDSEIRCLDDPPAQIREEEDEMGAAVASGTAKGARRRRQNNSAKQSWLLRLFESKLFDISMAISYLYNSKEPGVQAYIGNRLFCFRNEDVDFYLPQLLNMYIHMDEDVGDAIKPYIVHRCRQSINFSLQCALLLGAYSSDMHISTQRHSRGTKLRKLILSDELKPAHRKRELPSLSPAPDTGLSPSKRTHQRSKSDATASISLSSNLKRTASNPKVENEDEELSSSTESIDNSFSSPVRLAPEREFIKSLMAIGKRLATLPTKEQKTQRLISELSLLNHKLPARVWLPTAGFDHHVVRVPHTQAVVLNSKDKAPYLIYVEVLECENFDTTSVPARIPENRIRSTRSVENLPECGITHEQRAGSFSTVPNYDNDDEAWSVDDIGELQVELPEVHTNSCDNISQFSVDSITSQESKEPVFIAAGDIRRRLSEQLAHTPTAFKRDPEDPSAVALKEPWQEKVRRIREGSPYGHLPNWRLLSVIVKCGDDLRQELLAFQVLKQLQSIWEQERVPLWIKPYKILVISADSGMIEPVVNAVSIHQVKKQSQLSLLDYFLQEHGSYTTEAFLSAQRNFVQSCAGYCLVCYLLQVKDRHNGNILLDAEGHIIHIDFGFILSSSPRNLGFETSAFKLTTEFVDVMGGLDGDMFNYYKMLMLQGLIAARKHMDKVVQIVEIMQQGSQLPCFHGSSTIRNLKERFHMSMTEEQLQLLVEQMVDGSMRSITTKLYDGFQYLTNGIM

[8] = target: T8, selected panels of kinases in HeLa and PC3 cell lysates (Homo sapiens, UniProt P20594); details: 10 uM; proteome PC3; peptide […]k[…]; labeling site Lys2
T8 construct: endogenous in cells; host or cells: HeLa and PC3 cell lysates

[9] = target: T9, selected panels of kinases in HeLa and PC3 cell lysates (Homo sapiens, UniProt P21709); details: 10 uM; proteome PC3; peptide […]kIPIR; labeling site Activation Loop
T9 construct: endogenous in cells; host or cells: HeLa and PC3 cell lysates

[10] = target: T10, selected panels of kinases in HeLa and PC3 cell lysates (Homo sapiens, UniProt Q15418); details: 10 uM; RSK1 domain1; peptide LTDFGLSkEAIDHEK; proteome HEL; labeling site Activation Loop
T10 construct: endogenous in cells; host or cells: HeLa and PC3 cell lysates
T10 sequence (Q15418 whole entry, the tested form may be a part): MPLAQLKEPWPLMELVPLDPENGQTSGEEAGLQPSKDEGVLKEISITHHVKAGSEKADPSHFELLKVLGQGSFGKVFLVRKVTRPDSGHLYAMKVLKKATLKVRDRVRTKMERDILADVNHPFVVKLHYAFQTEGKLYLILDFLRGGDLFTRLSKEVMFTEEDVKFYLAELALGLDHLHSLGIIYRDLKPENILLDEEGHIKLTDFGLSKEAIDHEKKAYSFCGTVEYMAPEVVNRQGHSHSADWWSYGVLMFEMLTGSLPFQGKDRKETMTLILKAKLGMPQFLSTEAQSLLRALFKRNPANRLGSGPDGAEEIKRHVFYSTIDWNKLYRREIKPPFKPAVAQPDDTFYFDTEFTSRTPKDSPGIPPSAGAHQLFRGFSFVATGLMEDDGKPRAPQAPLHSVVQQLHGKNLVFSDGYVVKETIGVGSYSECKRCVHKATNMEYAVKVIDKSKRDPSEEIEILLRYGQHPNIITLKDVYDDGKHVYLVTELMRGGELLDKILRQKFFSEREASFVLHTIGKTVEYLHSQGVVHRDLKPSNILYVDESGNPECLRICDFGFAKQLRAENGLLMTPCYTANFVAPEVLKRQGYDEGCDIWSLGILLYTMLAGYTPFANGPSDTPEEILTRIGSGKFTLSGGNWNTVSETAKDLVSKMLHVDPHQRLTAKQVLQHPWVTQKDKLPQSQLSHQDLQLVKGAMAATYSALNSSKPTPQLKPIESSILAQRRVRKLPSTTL

[11] = target: T11, selected panels of kinases in HeLa and PC3 cell lysates (Homo sapiens, UniProt Q9H2G2); details: 10 uM, SLK
T11 construct: endogenous in cells; host or cells: HeLa and PC3 cell lysates
T11 sequence (Q9H2G2 whole entry): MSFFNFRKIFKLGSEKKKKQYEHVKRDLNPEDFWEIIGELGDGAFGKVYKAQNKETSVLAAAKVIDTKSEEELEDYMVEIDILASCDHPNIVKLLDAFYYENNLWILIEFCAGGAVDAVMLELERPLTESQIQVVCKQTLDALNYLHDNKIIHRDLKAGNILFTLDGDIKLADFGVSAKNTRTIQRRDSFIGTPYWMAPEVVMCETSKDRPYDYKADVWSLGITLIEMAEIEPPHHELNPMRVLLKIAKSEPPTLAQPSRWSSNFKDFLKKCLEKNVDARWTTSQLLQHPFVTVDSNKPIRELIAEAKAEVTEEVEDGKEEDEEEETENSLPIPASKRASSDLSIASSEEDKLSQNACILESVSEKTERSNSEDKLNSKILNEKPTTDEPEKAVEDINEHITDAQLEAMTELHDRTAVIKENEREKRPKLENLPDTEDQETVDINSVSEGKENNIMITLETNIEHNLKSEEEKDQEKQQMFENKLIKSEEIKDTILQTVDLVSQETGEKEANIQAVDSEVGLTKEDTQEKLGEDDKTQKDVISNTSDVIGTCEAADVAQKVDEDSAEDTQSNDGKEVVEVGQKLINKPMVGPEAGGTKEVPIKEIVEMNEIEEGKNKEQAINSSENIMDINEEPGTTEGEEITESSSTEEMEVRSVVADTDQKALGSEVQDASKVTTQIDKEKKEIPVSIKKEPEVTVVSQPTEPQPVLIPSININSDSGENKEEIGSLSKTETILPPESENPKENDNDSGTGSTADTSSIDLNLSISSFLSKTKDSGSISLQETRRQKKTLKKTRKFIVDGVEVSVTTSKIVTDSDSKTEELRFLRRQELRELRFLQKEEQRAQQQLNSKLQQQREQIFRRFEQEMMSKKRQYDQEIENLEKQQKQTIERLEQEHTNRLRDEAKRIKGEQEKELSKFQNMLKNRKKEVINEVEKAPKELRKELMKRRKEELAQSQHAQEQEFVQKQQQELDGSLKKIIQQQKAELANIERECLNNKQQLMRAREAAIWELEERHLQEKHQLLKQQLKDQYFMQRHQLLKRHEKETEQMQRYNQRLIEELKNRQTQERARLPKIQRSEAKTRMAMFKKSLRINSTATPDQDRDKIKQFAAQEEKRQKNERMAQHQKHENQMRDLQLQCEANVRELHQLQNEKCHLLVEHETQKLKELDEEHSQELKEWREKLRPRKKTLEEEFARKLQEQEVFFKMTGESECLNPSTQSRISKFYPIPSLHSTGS

[12] = target: T12, selected panels of kinases in HeLa and PC3 cell lysates (Homo sapiens, UniProt P51617); details: 10 uM; proteome PC3; peptide […]k[…]; labeling site Lys2
T12 construct: endogenous in cells; host or cells: HeLa and PC3 cell lysates

[13] = target: T13, selected panels of kinases in HeLa and PC3 cell lysates (Homo sapiens, UniProt O75385); details: 10 uM; ULK1; peptide DLk[…]; proteome HEL; labeling site Lys2
T13 construct: endogenous in cells; host or cells: HeLa and PC3 cell lysates
T13 sequence (O75385 whole entry): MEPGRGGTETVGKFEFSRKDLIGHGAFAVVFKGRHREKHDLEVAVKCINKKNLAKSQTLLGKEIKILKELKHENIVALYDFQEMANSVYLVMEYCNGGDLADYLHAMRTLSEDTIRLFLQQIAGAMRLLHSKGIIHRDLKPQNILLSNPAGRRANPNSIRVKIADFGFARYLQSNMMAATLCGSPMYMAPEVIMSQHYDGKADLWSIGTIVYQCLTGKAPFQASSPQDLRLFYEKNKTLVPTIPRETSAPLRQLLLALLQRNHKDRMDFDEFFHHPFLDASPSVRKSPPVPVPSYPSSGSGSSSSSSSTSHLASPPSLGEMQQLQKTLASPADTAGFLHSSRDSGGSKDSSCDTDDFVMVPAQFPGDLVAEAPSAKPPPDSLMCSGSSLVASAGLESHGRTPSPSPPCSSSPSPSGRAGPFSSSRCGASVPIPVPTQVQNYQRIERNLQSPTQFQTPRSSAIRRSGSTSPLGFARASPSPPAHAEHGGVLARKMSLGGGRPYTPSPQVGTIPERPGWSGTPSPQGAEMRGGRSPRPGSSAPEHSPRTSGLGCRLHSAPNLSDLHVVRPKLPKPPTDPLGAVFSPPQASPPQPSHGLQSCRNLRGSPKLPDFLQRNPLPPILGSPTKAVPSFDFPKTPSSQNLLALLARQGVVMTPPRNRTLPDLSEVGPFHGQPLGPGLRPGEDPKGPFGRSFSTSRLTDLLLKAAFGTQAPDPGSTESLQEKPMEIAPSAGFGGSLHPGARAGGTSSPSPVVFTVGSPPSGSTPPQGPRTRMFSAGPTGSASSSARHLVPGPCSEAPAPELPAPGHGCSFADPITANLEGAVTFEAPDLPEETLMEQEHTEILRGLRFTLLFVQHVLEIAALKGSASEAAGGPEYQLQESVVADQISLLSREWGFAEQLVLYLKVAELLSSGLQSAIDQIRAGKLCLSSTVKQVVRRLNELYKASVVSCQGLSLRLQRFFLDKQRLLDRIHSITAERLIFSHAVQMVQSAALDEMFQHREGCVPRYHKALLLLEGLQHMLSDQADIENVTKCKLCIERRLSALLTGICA

[14] = target: T14, selected panels of kinases in HeLa and PC3 cell lysates (Homo sapiens, UniProt P52564); details: 10 uM
T14 construct: endogenous in cells; host or cells: HeLa and PC3 cell lysates
T14 sequence (P52564 1-334): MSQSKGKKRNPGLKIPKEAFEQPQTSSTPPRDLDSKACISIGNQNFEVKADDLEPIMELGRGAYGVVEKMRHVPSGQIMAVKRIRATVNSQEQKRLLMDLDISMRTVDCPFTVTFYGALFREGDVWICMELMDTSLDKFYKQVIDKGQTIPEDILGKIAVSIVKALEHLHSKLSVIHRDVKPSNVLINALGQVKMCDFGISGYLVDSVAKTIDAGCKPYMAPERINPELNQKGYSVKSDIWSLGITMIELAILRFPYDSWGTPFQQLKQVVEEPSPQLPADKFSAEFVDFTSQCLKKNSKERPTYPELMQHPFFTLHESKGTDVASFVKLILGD

[15] = target: T15, selected panels of kinases in HeLa and PC3 cell lysates (Homo sapiens, UniProt Q15131); details: 10 uM; proteome PC3; peptide DLkVSNLLMTDK; labeling site Lys2
T15 construct: endogenous in cells; host or cells: HeLa and PC3 cell lysates
T15 sequence (Q15131 whole entry): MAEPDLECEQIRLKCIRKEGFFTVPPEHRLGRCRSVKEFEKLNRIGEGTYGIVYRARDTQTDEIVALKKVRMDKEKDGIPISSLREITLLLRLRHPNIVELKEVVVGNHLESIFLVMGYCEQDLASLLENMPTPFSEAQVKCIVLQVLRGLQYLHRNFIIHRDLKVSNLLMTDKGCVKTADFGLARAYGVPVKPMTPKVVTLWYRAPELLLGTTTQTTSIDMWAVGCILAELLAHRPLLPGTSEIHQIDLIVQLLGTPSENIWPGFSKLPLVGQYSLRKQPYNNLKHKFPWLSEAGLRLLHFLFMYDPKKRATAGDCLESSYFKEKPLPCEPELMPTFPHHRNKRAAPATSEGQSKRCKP

[16] = peptide YAAVkIHQLNK, proteome HEL, labeling site Lys1
[17] = peptide YAAVkIHQLNK, proteome PC3, labeling site Lys1
[18] = peptide […]k[…], proteome HEL, labeling site Lys2
[19] = peptide […]k[…], proteome PC3, labeling site Lys2
[20] = peptide DLk[…], proteome HEL, labeling site Lys2
[21] = peptide DLk[…], proteome PC3, labeling site Lys2
[22] = peptide ETSVLAAAkVIDTK, proteome PC3, labeling site Lys1
[23] = proteome HEL, peptide DVk[…], labeling site Lys2
[24] = proteome PC3, peptide DVk[…], labeling site Lys2
[25] = proteome PC3, peptide […]kR, labeling site Lys1

Row | SMILES | % Inhibition RON [1] | % Inhibiton, CHK1 [2] | % Inhibition ROCK1 [3] | % Inhibiton, NDR2 [4] | % Inhibition TLK1 [5, 16] | % Inhibition TLK1 [5, 17] | % Inhibition TLK1 [5, 18] | % Inhibition TLK1 [5, 19] | % Inhibiton, IRAK3 [6] | % Inhibition PI4KB ([7]; proteome HEL) | % Inhibition PI4KB ([7]; proteome PC3) | % Inhibiton, ANPb [8] | % Inhibiton, EphA1 [9] | % Inhibition RSK1 domain1 [10] | % Inhibition SLK [11, 20] | % Inhibition SLK [11, 21] | % Inhibition SLK [11, 22] | % Inhibiton, IRAK1 [12] | % Inhibition ULK1 [13] | % Inhibiton, MAP2K6 [14, 23] | further results
1 | CCOc1cc(C(=O)N2CCC(N3CCN(C)CC3)CC2)ccc1Nc1ncc2c(n1)N(C1CCCC1)c1ccccc1C(=O)N2C [Compound 26] | 11.1% | 13.8% | -8.1% | 8.2% | 35.7% | 6.2% | 3.6% | 6.8% | 37% | -1.9% | 3.6% | 24.3% | -0.1% | 5.6% | 25.7% | 2.9% | -35.8% | -2.9% | -5.1% | -4.3% | % Inhibiton, MAP2K6 [14, 24]: -9.9%; % Inhibiton, MAP2K6 [14, 25]: -2.3%; % Inhibiton, CDK10 [15]: 10.4%
2 | COc1cc(C(=O)N2CCC(N3CCN(C)CC3)CC2)ccc1Nc1ncc2c(n1)N(C1CCCC1)c1ccccc1C(=O)N2C [Compound 25, 11-cyclopentyl-2-((2-methoxy-4-(4-(4-methylpiperazin-1-yl)piperidine-1-carbonyl)phenyl)amino)-5-methyl-5H-benzo[e]pyrimido[5,4-b][1,4]diazepin-6(11H)-one] | -17.5% | -12.3% | -4.2% | -0.235% | -21.7% | -9.7% | -8.4% | -12.2% | 40.5% | -21.6% | -6.1% | -11.4% | -1.8% | 0.161% | 10.4% | -11.4% | -17.6% | 1.2% | 6.4% | 14.2% | % Inhibiton, MAP2K6 [14, 24]: -3.9%; % Inhibiton, MAP2K6 [14, 25]: 12.8%; % Inhibiton, CDK10 [15]: -11.0%
